A value given as a limit tells only on which side of the number the result lay.

One series has as its system SW620 cells. Briefly: In vitro drug exposure, immunoblot of cleaved PARP and cleaved caspase-3, SW620 cells. Type of series: cell-based, human. To be noted: 24 h, 0-5000 nM. As to the method:
(§1) For cell cycle analysis, SW620 and DLD-1 cells were propagated to 50% confluency in 6 cm plates and treated with AZD-1152-hydroxyquinazoline pyrazol anilide (HQPA) (Selleckchem), 0, 10, 100, 1000, or 5000 nM, for 24 or 48 hrs and prepared for flow cytometry as described (2). Propidium iodide (PI)-stained cells were analyzed by flow cytometry (FACStar PLUS, Becton-Dickinson). Data analysis was performed using CellQuest software (Becton-Dickinson) by manually gating to define and quantify sub-G0, G1, S, G2/M, and polyploidy populations. For assay of apoptosis following in vitro AZD-1152-HQPA exposure, SW620 and DLD-1 cells were seeded as sub-confluent monolayer cultures at a density of 1×10^4 per well into 96-well, black wall/bottom plates (BD Biosciences), allowed to adhere for 24 h, and treated with AZD-1152-HQPA, 0, 10, 50, 75, 100, or 1,000 nM, for 24 hrs. Apoptosis was assessed using the Caspase-Glo 3/7 reagent, in accordance with manufacturer's instructions, and analyzed using a Synergy 4 plate reader.
(§2) After 24 h of drug exposure, in vitro cell samples were collected from 10-cm plates. Medium was removed and cell monolayers washed with 1× phosphate buffered saline (PBS) followed by addition of […] of lysis buffer containing: 7 mL of CelLytic M lysis buffer (Sigma), mini protease inhibitor cocktail (Roche), and […] of phosphatase inhibitor cocktail 1 and 2 (Sigma). […]

Another series deals with DLD-1 cells. The series is described as follows: In vitro drug exposure, immunoblot of cleaved PARP and cleaved caspase-3, DLD-1 cells. Type of series: cell-based, human. As to conditions: 24 h, 0-5000 nM. As to the method: as §1, §2
A general note: In western blotting, separated proteins are transferred to a membrane and probed.

A further series has as its system SW620 xenografts. The series is described as follows: Cleaved caspase-3 immunohistochemistry, SW620 xenografts. It counts as in vivo, athymic nude mice. As to conditions: after imaging Day 5. As to the method:
Dual xenograft-bearing mice were sequentially injected with 1×10^7 SW620 and 5×10^6 DLD-1 human CRC cells subcutaneously onto the left or right hind limbs (respectively) of 5- to 6-week old female, athymic nude mice (Harlan Sprague-Dawley). Palpable tumors were observed 2-3 weeks following inoculation. Animals bearing SW620 and DLD-1 xenograft tumors were treated with vehicle or AZD-1152 (25 mg/kg, DMSO) via intraperitoneal injection once daily for five days, analogous to previous work. In vivo PET imaging studies were performed on Day 5, approximately 4-6 h after treatment. Tumor tissues were harvested immediately following conclusion of imaging, fixed for 24 h in 5% buffered formalin, and blocked in paraffin. Immunohistochemistry for cleaved caspase-3 (Cell Signaling, #9664) was carried out as previously described. Tissues were stained using standard H&E methods and reviewed by an expert gastrointestinal pathologist (M. Kay Washington). […] Semi-quantitative IHC analysis was performed using the image processing software ImageJ and is further described below. For semi-quantitative analysis of cleaved caspase-3 IHC, the public domain image processing software ImageJ was used to selectively measure the area of positive staining of each cohort through manual threshold manipulation of hue, pixel saturation, and brightness. […]

A short description of series [1]: Lipophilicity (log P7.5) by reversed phase HPLC. To be noted: for log P7.5: reversed phase HPLC, phosphate buffer pH 7.5, standard curve. It counts as physicochemical. As to the method: [^19F]FB-VAD-FMK and [^127I]IZ-VAD-FMK were synthesized as described below. VAD-FMK (American Peptide) and Z-VAD-FMK (TOCRIS Bioscience, #2163) were obtained commercially and used without further purification. Relative enzyme selectivity of [^19F]FB-VAD-FMK compared to parent peptide was evaluated as described below. Lipophilicity measurements (Log P7.5) of peptide derivatives were determined analogously to reported methods and described below.
Lipophilicity characterization of compounds (3) and (5), as well as Z-VAD-FMK, was performed through log P7.5 quantification using methodology analogous to those previously reported (1). Using reversed phase HPLC (Phenomenex Luna C18, 5 μm, 100 Å, 4.6×250 mm) and a (85:15) phosphate buffer (2 mM, pH 7.5) isocratic system (1 mL/min), log P7.5 values were calculated using an average of compound retention times from three individual runs and standard curve derived linear regression. The following standards with known log P values were used for curve development: catechol, aniline, benzene, bromobenze, toluene, ethylbenzene, 2-chlorobiphenyl, biphenyl, 1-chloronaphthalene, 1,2,3-trimethylbenzene, 1,2,3,4-tetrachlorobenzene, 1,2,4,5-tetrabromobenzene, and pentachlorobenzene.

The test system of series [2] is caspase-3/7 activity in DiFi cells. The series is described as follows: Cellular caspase inhibition assay (Caspase-Glo 3/7). Type of series: cell-based. As to the method: DiFi cells were propagated in Dulbecco's Modified Eagle's Medium (DMEM, Mediatech) and supplemented with 10% fetal bovine serum (Atlanta Biologicals) and 1 mg/mL gentamycin sulfate (Gibco) in a 95% humidity, 5% CO2, 37° C. atmosphere. Cells were seeded as sub-confluent monolayer cultures at a density of 1×10^4 per well into 96-well, black wall/bottom plates (BD Biosciences) and allowed to adhere for 24 h at 37° C. […] Cell media was then replaced with 1×PBS containing inhibitor (0, 10, 100, 1000, 10000 nM) and incubated at 37° C. for 30 min Inhibition was assessed using Caspase-Glo 3/7 reagent in accordance with the manufacturer's instructions. Luminescence was quantified using a Synergy 4 plate reader.

The next series deals with T1, caspase-3 (Homo sapiens, UniProt P42574).
T1 construct: purchased BPS Bioscience
T1 sequence (P42574 29-175 limits assumed): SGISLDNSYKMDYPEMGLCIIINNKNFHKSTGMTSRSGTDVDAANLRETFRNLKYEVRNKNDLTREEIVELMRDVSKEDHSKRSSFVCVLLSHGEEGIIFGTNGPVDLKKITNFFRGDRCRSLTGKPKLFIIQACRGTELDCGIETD
T1 sequence (P42574 176-277 limits assumed): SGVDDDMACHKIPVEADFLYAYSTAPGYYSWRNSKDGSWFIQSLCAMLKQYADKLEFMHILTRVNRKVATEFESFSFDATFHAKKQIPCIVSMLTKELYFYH
The series is described as follows: Enzyme selectivity assay, caspase-3. It counts as biochemical. As to conditions: fluorescence assay kit, 0.0003-10 μM. As to the method: (§3) Relative enzyme inhibition of [^19F]FB-VAD-FMK was evaluated against caspase-3/6/7/8 using homogeneous caspase fluorescence assay kits (BPS Bioscience) and compared to parent peptide. Caspase inhibitor dissolved in caspase assay buffer and 1% DMSO (0.0003-10 μM) was combined with the caspase assay substrate and enzyme at room temperature for 30 min in accordance with the manufacturer's instructions. Fluorescence intensity was measured at an excitation of 360 nm and an emission of 460 nm using an Infinite M1000 microplate reader (Tecan).

In a further series the target is T2, caspase-6 (Homo sapiens, UniProt P55212).
T2 construct: purchased BPS Bioscience
T2 sequence (P55212 24-179 limits assumed): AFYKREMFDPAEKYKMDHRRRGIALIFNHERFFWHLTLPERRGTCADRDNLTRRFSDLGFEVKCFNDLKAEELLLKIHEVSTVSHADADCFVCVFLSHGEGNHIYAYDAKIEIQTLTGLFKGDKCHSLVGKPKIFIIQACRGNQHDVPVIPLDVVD
T2 sequence (P55212 194-293 limits assumed): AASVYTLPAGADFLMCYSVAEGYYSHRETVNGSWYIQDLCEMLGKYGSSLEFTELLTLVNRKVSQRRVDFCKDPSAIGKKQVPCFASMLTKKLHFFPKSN
The series is described as follows: Enzyme selectivity assay, caspase-6. Type of series: biochemical. As to conditions: fluorescence assay kit, 0.0003-10 μM. As to the method: as §3

A further series concerns the target T3, caspase-7 (Homo sapiens, UniProt P55210).
T3 construct: purchased BPS Bioscience
T3 sequence (P55210 24-198 limits assumed): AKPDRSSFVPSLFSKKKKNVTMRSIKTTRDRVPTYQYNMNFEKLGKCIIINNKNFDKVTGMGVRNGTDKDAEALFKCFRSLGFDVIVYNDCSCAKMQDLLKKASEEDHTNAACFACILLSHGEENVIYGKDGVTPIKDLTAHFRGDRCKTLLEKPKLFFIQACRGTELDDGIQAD
T3 sequence (P55210 207-303 limits assumed): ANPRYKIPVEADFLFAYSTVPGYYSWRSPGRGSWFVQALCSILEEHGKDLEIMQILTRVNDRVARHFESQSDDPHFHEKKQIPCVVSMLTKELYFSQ
The series is described as follows: Enzyme selectivity assay, caspase-7. It counts as biochemical. To be noted: fluorescence assay kit, 0.0003-10 μM. As to the method: as §3

The target of another series is T4, caspase-8 (Homo sapiens, UniProt Q14790).
T4 construct: purchased BPS Bioscience
T4 sequence (Q14790 217-374 limits assumed): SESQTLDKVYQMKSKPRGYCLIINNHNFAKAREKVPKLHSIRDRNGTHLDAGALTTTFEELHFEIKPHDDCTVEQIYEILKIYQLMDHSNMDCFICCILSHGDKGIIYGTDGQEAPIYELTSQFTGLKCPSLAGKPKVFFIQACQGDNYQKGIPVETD
T4 sequence (Q14790 385-479 limits assumed): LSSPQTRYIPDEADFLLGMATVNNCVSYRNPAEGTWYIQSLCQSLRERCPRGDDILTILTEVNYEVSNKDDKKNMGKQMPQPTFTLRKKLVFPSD
Briefly: Enzyme selectivity assay, caspase-8. Type of series: biochemical. As to conditions: fluorescence assay kit, 0.0003-10 μM; compared with caspases-3/6/7. As to the method:
as §3

On the set-up of series [3]: species or system male C57BL/6 mice. As to conditions: mouse, in vivo, iv. As to the method: Studies involving animals were conducted in accordance with federal and institutional guidelines. Biodistribution studies were performed using male C57BL/6 mice. A detailed description of in vitro drug response studies that support the subsequently described animal models and drug therapies is provided below. For all imaging studies, mice were maintained under 2% isofluorane anesthesia in 100% oxygen at 2 L/min and kept warm via a circulating water heating pad for the duration of the PET scan. Small-animal PET imaging was performed using a dedicated Concorde Microsystems Focus 220 microPET scanner (Siemens Preclinical Solutions). Animals were administered 7.4-9.3 MBq of [^18F]FB-VAD-FMK via intravenous injection. Both static and dynamic data sets were acquired. For static scans, animals were allowed free access to food and water during a 20-40 minute uptake period, followed by anesthetization and a 20-minute image acquisition. Analogously, sixty minute dynamic acquisitions for all xenografts were initiated at the time of [^18F]FB-VAD-FMK injection. Radiochemical preparation of [^18F]FB-VAD-FMK (Fig. S3) was performed as described above. The in vivo biodistribution of [^18F]FB-VAD-FMK was evaluated by ex vivo tissue counting at 60 min post-administration and correlative PET imaging up to 75 min post-administration.

For series [4] the following is noted: in vivo.

In the case of `CCN(CCO)CCCOc1ccc2c(Nc3cc(CC(=O)Nc4cccc(F)c4)[nH]n3)ncnc2c1` [AZD-1152-HQPA, AZD-1152-hydroxyquinazoline pyrazol anilide], the “cleaved PARP and cleaved caspase-3 levels” value with SW620 cells and in the series on DLD-1 cells was “concentration-dependent increases” throughout.

In the case of `CCN(CCCOc1ccc2c(Nc3cc(CC(=O)Nc4cccc(F)c4)n[nH]3)ncnc2c1)CCOP(=O)(O)O` [AZD-1152], in the series on SW620 xenografts, the “caspase-3 immunoreactivity compared to vehicle” value is “elevated caspase-3 immunoreactivity”.

For `COC(=O)C[C@H](NC(=O)[C@H](C)NC(=O)[C@@H](NC(=O)c1ccc(F)cc1)C(C)C)C(=O)CF` [[^19F]FB-VAD-FMK], the “times less lipophilic than Z-VAD-FMK and [^127I]IZ-VAD-FMK” value in series [1] (from log P7.5 values) is 50-100 times. Besides, in series [1], the “log P7.5” value worked out at 1.41. Further, the “inhibition of caspase-3/7 activity” value was “nanomolar concentrations” in series [2] (DiFi cells in log-phase growth (untreated)) and “comparable efficacy to the parent peptide” in series [2] (DiFi cells, apoptosis induced by cetuximab 0.5 μg/mL 24 h). Moreover, the “inhibition potency, caspase-3” value against caspase-3 is listed as “single micro molar potency”. For the same molecule, the “inhibition potency, caspase-6” value against caspase-6 was “single micro molar potency”. Further, the “inhibition potency, caspase-7” value against caspase-7 is “single micro molar potency”. Further, on caspase-8, the “inhibition potency, caspase-8” value is “slightly greater potency”.

For the molecule “Val-Ala-Asp(OMe)-fluoromethylketone [VAD-FMK, American Peptide, reference compound]”, the “inhibition potency, caspase-3” value on caspase-3 is given as “single micro molar potency”. The “inhibition potency, caspase-6” value against caspase-6 was “single micro molar potency”. The “inhibition potency, caspase-7” value against caspase-7 is recorded as “single micro molar potency”. Moreover, the “inhibition potency, caspase-8” value at caspase-8 is recorded as “slightly greater potency”.

In the case of “[^18F]4-fluorobenzylcarbonyl-Val-Ala-Asp(OMe)-fluoromethylketone [[^18F]FB-VAD-FMK]”, in series [3], the “radioactivity in brain, lung, or bone” value is “Very little radioactivity”; the “tissue activity in kidneys and liver” value is “greatest activity”. For the same molecule, in [4], the “parent compound in bile and urine samples” value was at least 50%.

As to “[^127I]4-iodobenzyloxycarbonyl-Val-Ala-Asp(OMe)-fluoromethylketone [[^127I]IZ-VAD-FMK]”, in series [1], the “log P7.5” value is given as 2.38.

Consider “benzyloxycarbonyl-Val-Ala-Asp(OMe)-fluoromethylketone [Z-VAD-FMK, obtained commercially (TOCRIS Bioscience, #2163), reference compound]”, for which the “log P7.5” value in series [1] stood at 2.20.

(Values after patent US10294271B1, “Compound, composition, and method for detecting caspase activity and/or apoptosis” (Vanderbilt University, priority 2013, dated 2019).)
